Earlier results in article PMC4177305 (ChemMedChem, 2014).

Experiments:
[1] = in humans
[2] = target: human serum albumin (Homo sapiens, UniProt P02768); settings: reported affinity of MS-325 to human serum albumin
[3] = test system: human serum albumin (HSA); settings: displaces site II ligands rather than site I ligands

Sequence of human serum albumin (P02768 25-609): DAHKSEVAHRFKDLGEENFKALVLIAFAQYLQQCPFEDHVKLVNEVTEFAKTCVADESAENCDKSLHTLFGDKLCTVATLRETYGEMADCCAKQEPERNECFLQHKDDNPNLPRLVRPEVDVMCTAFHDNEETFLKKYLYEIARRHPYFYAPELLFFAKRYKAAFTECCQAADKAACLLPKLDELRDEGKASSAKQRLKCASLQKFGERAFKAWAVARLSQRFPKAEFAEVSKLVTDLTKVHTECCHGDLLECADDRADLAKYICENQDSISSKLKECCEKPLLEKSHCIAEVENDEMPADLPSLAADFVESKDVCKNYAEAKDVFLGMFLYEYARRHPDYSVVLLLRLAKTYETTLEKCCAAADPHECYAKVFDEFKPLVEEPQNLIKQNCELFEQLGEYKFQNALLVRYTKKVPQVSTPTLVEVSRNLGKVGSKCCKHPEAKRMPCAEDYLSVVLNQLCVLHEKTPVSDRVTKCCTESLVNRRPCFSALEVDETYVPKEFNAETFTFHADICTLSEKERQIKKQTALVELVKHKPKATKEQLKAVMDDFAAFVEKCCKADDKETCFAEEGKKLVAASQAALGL

intravascular half-life [1]: 18.5 ± 3 h | Kd [2]: 164 µM | albumin binding site [3]: binds primarily to site II
Compound: O=C([O-])CN(CCN(CC(=O)[O-])CC(COP(=O)([O-])OC1CCC(c2ccccc2)(c2ccccc2)CC1)N(CC(=O)[O-])CC(=O)[O-])CC(=O)[O-].[Gd+3].[Na+].[Na+].[Na+] (stereo not drawn) [MS-325, gadofosveset trisodium]
